pIC50, pKi: −log10 of the molar value.
What was measured:
[1] = DRUGMATRIX: Phosphodiesterase PDE4 enzyme inhibition (substrate: [3H]cAMP + cAMP); settings: u-937, Not Active = under 50% inhibition at 10 µM
[2] = molecular target: 5-hydroxytryptamine receptor 1B (Rattus norvegicus, UniProt P28564); format: cell membranes, Wistar, Cerebral cortex, Membrane; further: in other assays of this panel Not Active means under 50% inhibition at 10 µM
[3] = DRUGMATRIX: Tumor Necrosis Factor (TNF), Non-Selective radioligand binding (ligand: [125I] TNF-alpha); format: cell membranes, Membrane; settings: u-937; Not Active = under 50% inhibition at 10 µM
Adenosine receptor A1 = molecular target: T1, Adenosine receptor A1 (Homo sapiens, UniProt P30542); format: cell membranes, CHO, Membrane; settings: for IC50: cho;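 on all read-outs here: radioligand binding assay at the adenosine A1 receptor, with DPCPX serving as the labelled ligand; in other assays of this panel Not Active means under 50% inhibition at 10 µM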
T1 sequence (P30542 whole entry): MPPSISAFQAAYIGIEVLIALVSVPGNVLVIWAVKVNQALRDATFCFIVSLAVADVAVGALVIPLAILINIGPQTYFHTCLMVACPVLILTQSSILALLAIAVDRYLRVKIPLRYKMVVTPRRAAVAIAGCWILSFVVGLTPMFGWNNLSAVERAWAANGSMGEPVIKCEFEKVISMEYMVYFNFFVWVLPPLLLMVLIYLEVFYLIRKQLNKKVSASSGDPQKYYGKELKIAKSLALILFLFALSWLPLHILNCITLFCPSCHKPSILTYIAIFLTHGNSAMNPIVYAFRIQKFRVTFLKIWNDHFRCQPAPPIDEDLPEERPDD

[4] = molecular target: T2, Cholecystokinin receptor type A (Homo sapiens, UniProt P32238); format: cell membranes, Membrane; settings: 1321-n1; further: in other assays of this panel Not Active means under 50% inhibition at 10 µM
T2 sequence (P32238 whole entry): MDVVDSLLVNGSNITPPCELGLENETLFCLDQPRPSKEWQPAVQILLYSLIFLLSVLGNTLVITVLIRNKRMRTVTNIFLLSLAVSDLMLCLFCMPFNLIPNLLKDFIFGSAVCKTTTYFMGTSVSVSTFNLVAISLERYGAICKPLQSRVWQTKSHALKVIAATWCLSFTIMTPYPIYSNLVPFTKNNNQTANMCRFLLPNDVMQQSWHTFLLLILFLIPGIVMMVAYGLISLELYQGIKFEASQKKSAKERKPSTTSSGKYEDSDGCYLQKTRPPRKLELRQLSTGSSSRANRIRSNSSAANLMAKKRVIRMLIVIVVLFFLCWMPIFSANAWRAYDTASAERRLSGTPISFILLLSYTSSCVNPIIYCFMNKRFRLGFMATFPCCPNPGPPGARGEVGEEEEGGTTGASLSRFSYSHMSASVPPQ

Cannabinoid receptor 1 = Cannabinoid receptor 1 (Homo sapiens, UniProt P21554); format: cell membranes, Chem-1, Membrane; settings: chem-1; further: in other assays of this panel Not Active means under 50% inhibition at 10 µM
Sequence of Cannabinoid receptor 1 (P21554 whole entry): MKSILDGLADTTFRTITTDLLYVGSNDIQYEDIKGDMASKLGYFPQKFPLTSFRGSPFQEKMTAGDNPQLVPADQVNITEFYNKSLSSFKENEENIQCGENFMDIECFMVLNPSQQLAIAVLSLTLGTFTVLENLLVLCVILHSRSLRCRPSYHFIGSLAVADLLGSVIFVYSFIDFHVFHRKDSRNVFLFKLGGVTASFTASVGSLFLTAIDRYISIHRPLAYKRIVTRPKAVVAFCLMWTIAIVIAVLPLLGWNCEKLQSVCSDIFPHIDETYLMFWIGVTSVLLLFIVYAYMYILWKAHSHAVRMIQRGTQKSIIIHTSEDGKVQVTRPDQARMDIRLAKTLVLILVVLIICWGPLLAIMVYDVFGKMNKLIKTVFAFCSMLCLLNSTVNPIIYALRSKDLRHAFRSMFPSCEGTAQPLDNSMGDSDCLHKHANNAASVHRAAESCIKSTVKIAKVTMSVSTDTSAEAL

Sequence of 5-hydroxytryptamine receptor 1B (P28564 whole entry): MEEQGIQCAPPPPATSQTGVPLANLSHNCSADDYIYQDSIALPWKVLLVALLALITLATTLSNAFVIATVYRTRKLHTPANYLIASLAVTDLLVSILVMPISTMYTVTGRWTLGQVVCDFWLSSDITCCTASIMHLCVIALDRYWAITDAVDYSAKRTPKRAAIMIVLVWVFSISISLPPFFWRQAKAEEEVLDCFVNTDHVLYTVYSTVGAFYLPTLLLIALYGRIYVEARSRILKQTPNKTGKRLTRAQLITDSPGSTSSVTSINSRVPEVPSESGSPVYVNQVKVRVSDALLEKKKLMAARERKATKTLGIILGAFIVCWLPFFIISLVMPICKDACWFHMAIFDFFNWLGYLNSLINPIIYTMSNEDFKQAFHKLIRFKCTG

Compound	IC50 [1]	Ki [1]	IC50 [2]	IC50 [3]	Ki [3]	IC50 (Adenosine receptor A1)	IC50 [4]	IC50 (Cannabinoid receptor 1)	pIC50 ([1]; read-out: IC50)	pIC50 (Adenosine receptor A1; read-out: IC50)	pKi (Adenosine receptor A1; read-out: Ki)
Oc1c(Cl)cc(Cl)c(Cl)c1Cc1c(O)c(Cl)cc(Cl)c1Cl [HEXACHLOROPHENE]	Not Active	Not Active	Not Active	Not Active	Not Active	Not Active	Not Active	Not Active	–	–	–
NNc1nncc2ccccc12 [HYDRALAZINE]	Not Active	Not Active	Not Active	Not Active	Not Active	Not Active	Not Active	Not Active	–	–	–
CC(=O)[C@@]1(O)CC[C@H]2[C@@H]3CCC4=CC(=O)CC[C@]4(C)[C@H]3CC[C@@]21C [HYDROXYPROGESTERONE]	Not Active	Not Active	Not Active	Not Active	Not Active	Not Active	Not Active	Not Active	–	–	–
COC1=C(OC)C(=O)C(CCCCCCCCCCO)=C(C)C1=O [IDEBENONE]	Not Active	Not Active	Not Active	Not Active	Not Active	Not Active	Not Active	Not Active	–	–	–
CC(C)NNC(=O)c1ccncc1 [IPRONIAZID]	Not Active	Not Active	Not Active	Not Active	Not Active	Not Active	Not Active	Not Active	–	–	–
Cc1c(OCC(F)(F)F)ccnc1C[S+]([O-])c1nc2ccccc2[nH]1 (stereo not drawn) [LANSOPRAZOLE]	Not Active	Not Active	Not Active	Not Active	Not Active	Not Active	Not Active	Not Active	–	–	–
O=c1cc(N2CCOCC2)oc2c(-c3ccccc3)cccc12 [LY-294002]	–	–	Not Active	Not Active	Not Active	Not Active	Not Active	Not Active	4.98	–	–
COc1ccc2[nH]cc(CCNC(C)=O)c2c1 [MELATONIN]	Not Active	Not Active	Not Active	Not Active	Not Active	Not Active	Not Active	Not Active	–	–	–
NC(=O)C[S+]([O-])C(c1ccccc1)c1ccccc1 (stereo not drawn) [MODAFINIL]	Not Active	Not Active	Not Active	Not Active	Not Active	Not Active	Not Active	Not Active	–	–	–
CCN(CC)CCOCCC1=CCC2CC1C2(C)C (stereo not drawn) [MYRTECAINE]	Not Active	Not Active	Not Active	Not Active	Not Active	Not Active	Not Active	Not Active	–	–	–
O=C(O)c1cccnc1Nc1cccc(C(F)(F)F)c1 [NIFLUMIC ACID]	Not Active	Not Active	Not Active	Not Active	Not Active	Not Active	Not Active	Not Active	–	–	–
O=C(N/N=C/c1ccc([N+](=O)[O-])o1)c1cc([N+](=O)[O-])cc([N+](=O)[O-])c1O [NIFURSOL]	Not Active	Not Active	Not Active	Not Active	Not Active	Not Active	Not Active	Not Active	–	–	–
COC(=O)Nc1nc2ccc(C(=O)c3cccs3)cc2[nH]1 [NOCODAZOLE]	Not Active	Not Active	Not Active	Not Active	Not Active	–	Not Active	Not Active	–	4.30	4.53
C#CC1(O)CC[C@H]2[C@@H]3CCC4=CC(=O)CC[C@@H]4[C@H]3CC[C@@]21CC (stereo partly drawn) [NORGESTREL]	Not Active	Not Active	Not Active	Not Active	Not Active	Not Active	Not Active	Not Active	–	–	–
COC(=O)Nc1nc2ccc([S+]([O-])c3ccccc3)cc2[nH]1 (stereo not drawn) [OXFENDAZOLE]	Not Active	Not Active	Not Active	Not Active	Not Active	Not Active	Not Active	Not Active	–	–	–
C[n+]1ccc(-c2cc[n+](C)cc2)cc1.[Cl-].[Cl-] [PARAQUAT DICHLORIDE]	Not Active	Not Active	Not Active	Not Active	Not Active	Not Active	Not Active	Not Active	–	–	–
CC(C)NCC(O)COc1cccc2[nH]ccc12 (stereo not drawn) [PINDOLOL]	Not Active	Not Active	Not Active	Not Active	Not Active	Not Active	Not Active	Not Active	–	–	–
CCn1cc(C(=O)O)c(=O)c2cnc(N3CCCC3)nc21 [PIROMIDIC ACID]	Not Active	Not Active	Not Active	Not Active	Not Active	Not Active	Not Active	Not Active	–	–	–
C[n+]1ccccc1/C=N/O.[Cl-] [PRALIDOXIME CHLORIDE]	Not Active	Not Active	Not Active	Not Active	Not Active	Not Active	Not Active	Not Active	–	–	–
COc1cc2nc(N3CCN(C(=O)c4ccco4)CC3)nc(N)c2cc1OC [PRAZOSIN]	Not Active	Not Active	Not Active	Not Active	Not Active	Not Active	Not Active	Not Active	–	–	–
C[C@]12C=CC(=O)C=C1CC[C@@H]1[C@@H]2[C@@H](O)C[C@@]2(C)[C@H]1CC[C@]2(O)C(=O)CO [PREDNISOLONE]	Not Active	Not Active	Not Active	Not Active	Not Active	Not Active	Not Active	Not Active	–	–	–
CC(=O)[C@H]1[C@H](C#N)C[C@H]2[C@@H]3CC=C4C[C@@H](O)CC[C@]4(C)[C@H]3CC[C@@]21C [PREGNENOLONE CARBONITRILE]	Not Active	Not Active	Not Active	Not Active	Not Active	Not Active	Not Active	Not Active	–	–	–
CCCN(CCC)S(=O)(=O)c1ccc(C(=O)O)cc1 [PROBENECID]	Not Active	Not Active	Not Active	Not Active	Not Active	Not Active	Not Active	Not Active	–	–	–
CCCNCC(O)COc1ccccc1C(=O)CCc1ccccc1 (stereo not drawn) [PROPAFENONE]	Not Active	Not Active	Not Active	Not Active	Not Active	Not Active	Not Active	Not Active	–	–	–
CCCOc1ccc(C(=O)OCCN(CC)CC)cc1N [PROPARACAINE]	Not Active	Not Active	Not Active	Not Active	Not Active	Not Active	Not Active	Not Active	–	–	–
CC(C)c1cccc(C(C)C)c1O [PROPOFOL]	Not Active	Not Active	Not Active	Not Active	Not Active	Not Active	Not Active	Not Active	–	–	–
